pIC50: −log10 of the molar value. Like-named read-outs stand apart in the source and are kept apart here.
Tests used:
[1] = molecular target: PTP1B-FL (Homo sapiens, UniProt P18031); assay: cell-based
[2] = system: CD45; assay type: cell-based
[3] = system: PTPs (PTP1B-FL, CD45-cat and CD45-FL); assay type: cell-based
[4] = system: recombinant PTP1B; conditions: oxidizing its catalytic site cysteine; cited from earlier work
[5] = system: CD45-cat; assay type: cell-based; conditions: infected sf9 cells, 10 mM pNPP
[6] = system: background phosphatases in mock-infected sf9 cells; assay type: cell-based, fall armyworm Spodoptera; conditions: for effect on background phosphatases: infected sf9 cells, 10 mM pNPP
[7] = system: PTP; conditions: cited from earlier work

Sequence of PTP1B-FL (P18031 whole entry): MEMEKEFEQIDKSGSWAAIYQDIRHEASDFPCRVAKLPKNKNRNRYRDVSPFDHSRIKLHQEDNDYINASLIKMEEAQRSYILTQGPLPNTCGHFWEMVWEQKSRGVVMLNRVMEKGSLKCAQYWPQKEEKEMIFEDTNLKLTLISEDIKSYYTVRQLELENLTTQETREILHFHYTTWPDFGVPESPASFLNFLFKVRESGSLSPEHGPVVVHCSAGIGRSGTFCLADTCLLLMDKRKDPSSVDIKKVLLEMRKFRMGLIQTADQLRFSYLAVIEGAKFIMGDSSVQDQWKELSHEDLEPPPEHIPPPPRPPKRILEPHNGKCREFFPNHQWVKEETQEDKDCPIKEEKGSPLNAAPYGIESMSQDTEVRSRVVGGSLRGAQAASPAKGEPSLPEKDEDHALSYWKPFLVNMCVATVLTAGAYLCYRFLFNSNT

OO [hydrogen peroxide]
pIC50 [1]: 4.82 to 5.00 | pIC50 ([2]; read-out: IC50 range): 4.82 to 5.00 | potency and selectivity in words ([3]; intact sf9 cells, 10 mM pNPP): limited potency and selectivity | pIC50 ([3]; read-out: IC50 values in the range of): 4.80 to 5.15 | inactivation of recombinant PTP1B in vitro [4]: inactivate recombinant PTP1B in vitro

C=C1[C@@H](O)[C@@H]2O[C@]3(CC[C@H](/C=C/[C@@H](C)[C@@H]4CC(C)=C[C@@]5(O[C@H](C[C@@](C)(O)C(=O)O)CC[C@H]5O)O4)O3)CC[C@H]2O[C@@H]1[C@@H](O)C[C@H](C)[C@H]1O[C@@]2(CCCCO2)CC[C@H]1C [okadaic acid]
effect on CD45-cat phosphatase ([5]; okadaic acid at 6.7 μM): Neither ouabain at 1 mM or okadaic acid at 6.7 μM had any effect | effect on background phosphatases ([6]; okadaic acid at 6.7 μM): Neither ouabain at 1 mM or okadaic acid at 6.7 μM had any effect | effect on pNPP hydrolysis [3]: had no effect

C[C@@H]1O[C@@H](O[C@H]2C[C@@H](O)[C@]3(CO)[C@H]4[C@H](O)C[C@]5(C)[C@@H](C6=CC(=O)OC6)CC[C@]5(O)[C@@H]4CC[C@]3(O)C2)[C@H](O)[C@H](O)[C@H]1O [ouabain]
effect on CD45-cat phosphatase ([5]; ouabain at 1 mM): Neither ouabain at 1 mM or okadaic acid at 6.7 μM had any effect | inhibition of background infected cells [6]: no inhibition up to 1 mM | effect on background phosphatases ([6]; ouabain at 1 mM): Neither ouabain at 1 mM or okadaic acid at 6.7 μM had any effect | inhibition of CD45 expressing cells [2]: no inhibition up to 1 mM

[Na+].[Na+].[Na+].[O]=[V]([O-])([O-])[O-] [vanadate, sodium orthovanadate]
pIC50 [6]: 5.80 | mode of binding at active site [7]: competitively and reversibly bound at the active site

Reference: patent publication US6329137A (priority 2000, dated 2001)
